# Test results: PMC5760527, “Connexin 43 Hemichannel as a Novel Mediator of Sterile and Infectious Inflammatory Diseases” (Scientific Reports, 2018)
# Where no end group is shown, it is not given here.
# Columns and labels:
# [1] = tested on: Balb/c mice, polymicrobial sepsis (CLP); experiment: CLP-induced sepsis survival; format: in vivo; settings: i.p., +6, +18 and +36 h post CLP, two weeks; for survivors: saline 50%; for animal survival (in words): CLP, Balb/c mice
# Source text: This study was approved and performed in accordance with the guidelines of the Institutional Animal Care and Use Committee of the Feinstein Institute for Medical Research, Manhasset, New York, USA (Animal Protocol #2008-033, Approval date: September 10, 2014). To evaluate the effect of various Cx43 mimetic peptides on sepsis lethality, a clinically relevant animal model of sepsis induced by cecal ligation and puncture (CLP) was employed. Briefly, the cecum of Balb/c mice was ligated at about 5 mm from the cecal tip, and then punctured once with a 22-gauge needle. GAP26, TAT-GAP19 or P5 peptides were administered intraperitoneally into mice at indicated doses and time points, and animal survival rates were monitored for up to 2 wks. The Kaplan-Meier method was used to compare the differences in mortality rates between groups.
# [2] = tested on: macrophage Cx43 hemichannel activities, RAW 264.7 cells; experiment: Lucifer Yellow dye uptake, hemichannel permeability, calcium-depleted; format: cell-based, murine; settings: LPS 0.5 μg/ml, 16 h, LY 15 min, P < 0.05 versus +LPS
# Source text: Because connexon is the structural unit for both hemichannel (1 connexon) and gap junction (2 connexons from opposing cells), which are both permeable to similar molecular weight molecules, such as the Lucifer yellow (LY). Thus, the LY dye uptake could be used to determine the channel permeability of both hemichannel (as indicated by the rate of LY entry into the cells) and gap junction channels (as judged by the distance of intercellular LY diffusion). The LY dye uptake assay relied on the ability of this dye present in the extracellular milieu to cross the plasma membrane and became concentrated inside of the cell, which could be quantified by fluorescence microscopy. To determine the effects of Cx43 mimetic peptides on hemichannel permeability, RAW 264.7 cells were subjected to LPS stimulation (0.5 µg/ml, 16 h) before replacing the medium with fresh DMEM containing various Cx43 mimetic peptides, GAP26 (100 µM), TAT-GAP19 (200 µM) or P5 (20 µM). Following a brief incubation (15 min), EGTA (1 mM) was added to deplete free calcium prior to the addition of LY dye (1%). Fifteen min later, cells were fixed with 2% paraformaldehyde, and the number of LY-positive cells was counted. The ratio of LY-positive cells vs. total cell counts (DAPI staining) was used as the measurement of hemichannel permeability.
# HMGB1 secretion = settings: cited from earlier work
# Source text: (§1) The establishment of HMGB1 as a critical mediator of various inflammatory diseases has prompted an on-going search for endogenous and exogenous modulators of HMGB1 secretion.
# PKR phosphorylation = settings: cited from earlier work
# Source text: as §1
# [3] = tested on: Cx43 GJ and hemichannel activities; settings: cited from earlier work
# Source text: The establishment of HMGB1 as a critical mediator of various inflammatory diseases has prompted an on-going search for endogenous and exogenous modulators of HMGB1 secretion. […] We thus evaluated the alteration of macrophage hemichannel activities in the absence or presence of Cx43 mimetic peptides previously shown to be capable of blocking Cx43 hemichannels. […] Because Cx43 GJ and hemichannels often co-exist in plasma membranes, a definitive elucidation of the functions of Cx43 GJ or hemichannels has been quite challenging. First, genetic deletion would eliminate both channels. Secondly, these two types of Cx channels are susceptible to a similar array of chemical blockers. Latel ...
# Cx43 EL1 peptide = target: T1, Cx43 EL1 peptide (Homo sapiens, UniProt P17302); experiment: Surface Plasmon Resonance, Cx43 EL1 peptide; format: binding; settings: Cx43 EL1 peptide
# T1 construct: synthetic full-length Cx43 EL1 or EL2 peptide as judged by the Surface Plasmon Resonance Analysis
# T1 sequence (P17302 45-76 limits assumed): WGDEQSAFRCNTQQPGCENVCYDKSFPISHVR
molecule,measurement,setting,value
YGRKKRRQRRRK-QIEIKKFK [TAT-GAP19],survivors,[1]; 15 mg/kg,60%
same,survivors,[1]; 120 mg/kg,20%
same,animal survival (in words),[1],decreased animal survival particularly when given at a comparable higher dose
same,effect on LY dye uptake (hemichannel activities),[2]; TAT-GAP19 200 μM,elevated LY dye uptake
CC1(C)[C@@H](OC(=O)CCC(=O)O)CC[C@]2(C)[C@H]3C(=O)C=C4[C@@H]5C[C@@](C)(C(=O)O)CC[C@]5(C)CC[C@@]4(C)[C@]3(C)CC[C@@H]12 [carbenoxolone],PKR-mediated HMGB1 secretion,HMGB1 secretion,effectively prevented
same,endotoxin-induced PKR phosphorylation,PKR phosphorylation,effectively prevented
same,blocking of Cx43 GJ and hemichannel activities,[3]; no reference given,blocking Cx43 GJ and hemichannel activities
"VCYDKSFPISHVR [GAP26, Cx43 mimetic peptide GAP26 (…), first extracellular loop]",animal survival (in words),[1],reproducibly increased animal survival rates
same,interruption of GJ formation,"[3]; after prolonged application, no reference given",interruption of GJ formation after prolonged application
same,inhibition of Cx43 hemichannel activities or gap junction formation,[3],inhibiting Cx43 hemichannel activities or gap junction formation
same,effect on endotoxin-induced hemichannel activities (LY dye uptake),[2]; GAP26 100 μM,significant impairment of the endotoxin-induced elevation of hemichannel activities
QPGCEN [P4],Kd,Cx43 EL1 peptide,20 µM
